Read-outs that look alike come from different tables or passages of the source.
Experiments:
HIV-1 integrase = biological target: T1, HIV-1 integrase (Human immunodeficiency virus type 1 group M subtype B, UniProt P04585); assay: HIV integrase assay: strand transfer catalyzed by recombinant integrase; assay type: biochemical; settings: strand transfer activity
T1 construct: strand transfer activity of HIV-1 integrase
Description: Assays for the strand transfer activity of HIV-1 integrase were conducted in accordance with WO 02/30930 for recombinant integrase.
Further description on conducting the assay using preassembled complexes is found in Wolfe, A. L. et al., J. Virol. 1996, 70: 1424-1432, Hazuda et al., J. Virol. 1997, 71: 7005-7011; Hazuda et al., Drug Design and Discovery 1997, 15: 17-24; and Hazuda et al., Science 2000, 287: 646-650.

HIV-1 = assay: Inhibition of acute HIV-1 infection of T-lymphoid cells (spread assay); assay type: cell-based; settings: 10% FBS, read-out: IC95 (nM) in the presence of 10% FBS
Description: Assays for the inhibition of acute HIV-1 infection of T-lymphoid cells were conducted in accordance with Vacca, J. P. et al., Proc. Natl. Acad. Sci. USA 1994, 91: 4096.

HIV-1 wild type IIIB = assay: Single cycle infectivity assay in HeLa P4-2 cells, wild type virus; assay type: cell-based
Outline: (§1)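 HeLa P4-2 cells used in a single-cycle acute HIV-1 infection assay. Wild-type IIIB or integrase mutant viruses made by site-directed mutagenesis of proviral plasmids and produced by transfection of 293T cells.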

[1] = test system: HIV-1 integrase mutant virus N155H; assay: Single cycle infectivity assay in HeLa P4-2 cells, integrase mutant N155H virus; assay type: cell-based; settings: fold shift in IC50 versus wild type IIIB
Outline: as §1

[2] = test system: HIV-1 integrase mutant virus Q148R; assay: Single cycle infectivity assay in HeLa P4-2 cells, integrase mutant Q148R virus; assay type: cell-based; settings: fold shift in IC50 versus wild type IIIB
Outline: as §1

[3] = test system: HIV-1 integrase mutant virus Y143R; assay: Single cycle infectivity assay in HeLa P4-2 cells, integrase mutant Y143R virus; assay type: cell-based; settings: fold shift in IC50 versus wild type IIIB
Outline: as §1

[4] = test system: HIV-1 integrase mutant virus G140S/Q148H; assay: Single cycle infectivity assay in HeLa P4-2 cells, integrase mutant G140S/Q148H virus; assay type: cell-based; settings: fold shift in IC50 versus wild type IIIB
Outline: as §1

CCN(C(=O)C(=O)N(C)C)C12CCC(Cn3c1nc(C(=O)NCc1ccc(F)cc1)c(O)c3=O)OC2 (single isomer, unassigned) [Example 12B, N-Ethyl-N-(4-{[(4-fluorobenzyl)amino]carbonyl}-5-hydroxy-6-oxo-10-oxa-3,7-diazatricyclo[7.2.2.0^2,7]trideca-2,4-dien-1-yl)-N′,N′-dimethylethanediamide]
IC50 (HIV-1 integrase): 18 nM | IC95 (HIV-1): 19 nM | IC50 (HIV-1 wild type IIIB; wild type IIIB): 7 nM | N155H (shift) [1]: 56 fold | Q148R (shift) [2]: 32 fold | Y143R (shift) [3]: 7 fold | G140S/Q148H (shift) [4]: 240 fold

CC1C2CCC(N(C)C(=O)C(=O)N(C)C)(CC2)c2nc(C(=O)NCc3ccc(F)cc3)c(O)c(=O)n21 (single isomer, unassigned) [Example 13B, N-(4-{[(4-fluorobenzyl)amino]carbonyl}-5-hydroxy-8-methyl-6-oxo-3,7-diazatricyclo[7.2.2.0^2,7]trideca-2,4-dien-1-yl)-N′,N′,N″-trimethylethanediamide]
IC50 (HIV-1 integrase): 13 nM | IC95 (HIV-1): 20 nM | IC50 (HIV-1 wild type IIIB; wild type IIIB): 8 nM | N155H (shift) [1]: 30 fold | Q148R (shift) [2]: 57 fold | Y143R (shift) [3]: 7 fold | G140S/Q148H (shift) [4]: >209 fold

Cc1cc(CNC(=O)c2nc3n(c(=O)c2O)CC2CCC3(N(C)C(=O)C(=O)N(C)C)CO2)ccc1F (single isomer, unassigned) [Example 11B]
IC50 (HIV-1 integrase): 14 nM | IC95 (HIV-1): 7.8 nM | IC50 (HIV-1 wild type IIIB; wild type IIIB): 112 nM | N155H (shift) [1]: 5 fold | Q148R (shift) [2]: 2 fold | Y143R (shift) [3]: 1 fold | G140S/Q148H (shift) [4]: 14 fold

CN(C(=O)C(=O)N1CCOCC1)C12CCC(CC1)Cn1c2nc(C(=O)NCc2ccc(F)cc2)c(O)c1=O [Example 3, N-(4-fluorobenzyl)-5-hydroxy-1-{methyl[morpholin-4-yl(oxo)acetyl]amino}-6-oxo-3,7-diazatricyclo[7.2.2.0^2,7]trideca-2,4-diene-4-carboxamide]
IC50 (HIV-1 integrase): 32 nM | IC95 (HIV-1; Human immunodeficiency virus 1, T-lymphoid): 11 nM | IC50 (HIV-1 wild type IIIB; Human immunodeficiency virus 1, IIIB, HeLaP4-2, wild type IIIB): 31 nM | N155H (shift) [1]: 2 fold | Q148R (shift) [2]: 2 fold | Y143R (shift) [3]: 1 fold | G140S/Q148H (shift) [4]: 9 fold

CN(C)C(=O)C(=O)N(C)C12CCC(Cn3c1nc(C(=O)NCc1ccc(F)cc1)c(O)c3=O)OC2 (single isomer, unassigned) [Example 10A, N-(4-{[(4-fluorobenzyl)amino]carbonyl}-5-hydroxy-6-oxo-10-oxa-3,7-diazatricyclo[7.2.2.0^2,7]trideca-2,4-dien-1-yl)-N′,N′N′-trimethylethanediamide]
IC50 (HIV-1 integrase): 5 nM | IC95 (HIV-1): 9.0 nM | IC50 (HIV-1 wild type IIIB; wild type IIIB): 221 nM | N155H (shift) [1]: 5 fold | Q148R (shift) [2]: 4 fold | Y143R (shift) [3]: 1 fold | G140S/Q148H (shift) [4]: 26 fold

Reference: US20120022045A1, “BRIDGED COMPOUNDS AS HIV INTEGRASE INHIBITORS” (priority 2009, published 2012)
